Reference: patent publication US12486278B2, “MASP-2 inhibitors and methods of use” (Omeros Corporation, priority 2019, dated 2025)
pKi: −log10 of the molar value. Structures can show the parent of a compound that is named as a salt.

Each compound was assayed against T1, MASP-2 (CCP1-CCP2-SP) (Homo sapiens, UniProt O00187) (assay: Enzymatic Assay for MASP-2 (fluorogenic substrate)). Conditions: fluorogenic substrate based on C2 cleavage site; room temperature, 20 min; 20 mM HEPES pH 7.4, 140 mM NaCl, 0.1% Tween 20.
T1 construct: 15 μL of Enzyme MASP-2 (CCP1-CCP2-SP) in Assay Buffer
T1 sequence (O00187 445-686 limits assumed): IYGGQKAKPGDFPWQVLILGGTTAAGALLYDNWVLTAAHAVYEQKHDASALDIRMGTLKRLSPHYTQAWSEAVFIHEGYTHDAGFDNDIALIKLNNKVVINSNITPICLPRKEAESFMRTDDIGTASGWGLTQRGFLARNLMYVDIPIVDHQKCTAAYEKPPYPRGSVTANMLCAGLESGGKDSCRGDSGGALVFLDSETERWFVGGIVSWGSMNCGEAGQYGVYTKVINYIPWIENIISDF
T1 sequence (O00187 298-444 partner limits assumed): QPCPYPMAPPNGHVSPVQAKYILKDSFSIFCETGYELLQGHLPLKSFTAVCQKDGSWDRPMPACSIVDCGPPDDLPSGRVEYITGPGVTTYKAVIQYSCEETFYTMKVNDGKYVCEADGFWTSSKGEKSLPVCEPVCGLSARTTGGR
Format: biochemical
Procedure: The MASP-2 assay utilizes a fluorogenic substrate, based on the cleavage site for its natural substrate C2. The assay is run at room temperature in an assay buffer containing 20 mM HEPES, pH 7.4, 140 mM NaCl and 0.1% Tween 20. Assay parameters are adjusted such that the assay is linear with respect to time, enzyme, and substrate concentrations. Under these optimized assays conditions, IC50 values are equivalent to Ki values, except in a few cases of “tight binding” inhibitors. Cases of “tight binding” or possible “slow binding” inhibitors are handled by the methods described in Copeland R. A. (2013) Evaluation of Enzyme Inhibitors in Drug Discovery. 2nd Ed., John Wiley and Sons, Inc., Chapters 5-7.
The MASP-2 assay protocol is carried out as follows. Test compounds are serially diluted in DMSO and then 100 nL of each dilution is transferred to the assay plate(s). 10 μL of Assay Buffer is added, followed by 15 μL of Enzyme MASP-2 (CCP1-CCP2-SP) in Assay Buffer. 15 μL of Substrate in Assay Buffer is then added and mixed to start the reactions. After 20 min at room temperature, 15 μL of a stop solution (0.1 M acetic acid) is added, mixed and the plates are read on a SpectraMax i3x Microplate Reader and exported as Excel files. Each assay plate included a “no inhibitor” (DMSO Only) control, a “no enzyme” control and a reference inhibitor control. % Activity values=100*(average test comp. fluorescence−average “no enzyme” fluorescence)/(average “DMSO only” fluorescence−average “no enzyme” fluorescence). IC50 and Ki values are very reproducible, falling well within ±2-fold.

Q: With `Cc1cccc([C@@H]2CN[C@@H](C(=O)N[C@@H](C)C(=O)NCc3ccc(C(=N)N)cc3)C2)c1` [Compound I-13, (2R,4R)—N—((S)-1-((4-Carbamimidoylbenzyl)Amino)-1-Oxopropan-2-Yl)-4-(M-Tolyl)Pyrrolidine-2-Carboxamide] as the compound, how does the pKi read?
A: Its pKi is over 6.30.

Q: How did the pKi turn out when `Cc1nc(N)ccc1CNC(=O)[C@H](C)NC(=O)[C@H]1C[C@H](Cc2ccc(F)c(Cl)c2)CN1CC(=O)O` [Compound I-33, 2-((2R,4S)-2-(((S)-1-(((6-Amino-2-Methylpyridin-3-Yl)Methyl)Amino)-1-Oxopropan-2-Yl)Carbamoyl)-4-(3-Chloro-4-Fluorobenzyl)Pyrrolidin-1-Yl)Acetic Acid Di-Trifluoroacetate] was run?
A: Its pKi is over 6.30.

Q: `Cc1nc(N)ccc1CNC(=O)[C@H](C)NC(=O)[C@H]1C[C@@H](c2cccc(-n3cccn3)c2)CCN1` [Compound I-78, (2R,4S)-4-(3-(1H-Pyrazol-1-Yl)Phenyl)-N—((S)-1-(((6-Amino-2-Methylpyridin-3-Yl)Methyl)Amino)-1-Oxopropan-2-Yl)Piperidine-2-Carboxamide Dihydrochloride] was tested. Which pKi did it give?
A: The pKi was over 6.30.

Q: `Cc1nc(N)ccc1CNC(=O)[C@H](C)NC(=O)[C@H]1C[C@H](Cc2cccc(C3CC3)c2)CN1` [Compound I-44, (2R,4S)—N—((S)-1-(((6-Amino-2-Methylpyridin-3-Yl)Methyl)Amino)-1-Oxopropan-2-Yl)-4-(3-Cyclopropylbenzyl)Pyrrolidine-2-Carboxamide Di-Trifluoroacetate] was tested. Which pKi did it give?
A: The pKi was over 6.30.

Q: How did the pKi turn out when `CC(NC(=O)[C@H]1C[C@@H](c2ccccc2)CCN1CC(=O)O)C(=O)NCc1cc2cnccc2[nH]1` (stereo in doubt) [Compound I-104, 2-((2R,4S)-2-(((R)-1-(((1H-pyrrolo[3,2-c]pyridin-2-yl)methyl)amino)-1-oxopropan-2-yl)carbamoyl)-4-phenylpiperidin-1-yl)acetic acid di-trifluoroacetate] was run?
A: Its pKi is over 6.30.

Q: With `C[C@H](NC(=O)[C@H]1C[C@@H](c2ccccc2)CCN1CCNS(C)(=O)=O)C(=O)NCc1cc2cnccc2[nH]1` [Compound I-42, (2R,4S)—N—((S)-1-(((1H-Pyrrolo[3,2-C]Pyridin-2-Yl)Methyl)Amino)-1-Oxopropan-2-Yl)-1-(2-(Methylsulfonamido)Ethyl)-4-Phenylpiperidine-2-Carboxamide Di-Trifluoroacetate] as the compound, how does the pKi read?
A: Its pKi is over 6.30.

Q: How did the pKi turn out when `C[C@H](NC(=O)[C@H]1C[C@@H](c2ccccc2)CCN1CCC(=O)O)C(=O)NCc1ccc(C(=N)N)cc1` [Compound I-32, 3-((2R,4S)-2-(((S)-1-((4-Carbamimidoylbenzyl)Amino)-1-Oxopropan-2-Yl)Carbamoyl)-4-Phenylpiperidin-1-Yl)Propanoic Acid Di-Trifluoroacetate] was run?
A: Its pKi is over 6.30.

Q: How did the pKi turn out when `C[C@H](NC(=O)[C@H]1C[C@@H](c2ccc(-c3cccnc3)cc2)CCN1)C(=O)NCc1cc2cnccc2[nH]1` [Compound I-73, (2R,4S)—N—((S)-1-(((1H-Pyrrolo[3,2-C]Pyridin-2-Yl)Methyl)Amino)-1-Oxopropan-2-Yl)-4-(4-(Pyridin-3-Yl)Phenyl)Piperidine-2-Carboxamide Tri-Trifluoroacetate] was run?
A: The pKi was over 6.30.

Q: How did the pKi turn out when `C[C@H](NC(=O)[C@H]1C[C@H](Oc2ccccc2)CN1)C(=O)NCc1ccc(C(=N)N)cc1` [Compound I-96, (2R,4S)—N—((S)-1-((4-Carbamimidoylbenzyl)amino)-1-oxopropan-2-yl)-4-phenoxypyrrolidine-2-carboxamide di-trifluoroacetate] was run?
A: Its pKi is over 6.30.

Q: How did the pKi turn out when `C[C@H](NC(=O)[C@H]1C[C@@H](c2ccc(-c3cccnc3)cc2)CCN1)C(=O)NCc1cc(Cl)ccc1-n1cnnn1` [Compound I-101, (2R,4S)—N—((S)-1-((5-chloro-2-(1H-tetrazol-1-yl)benzyl)amino)-1-oxopropan-2-yl)-4-(4-(pyridin-3-yl)phenyl)piperidine-2-carboxamide trifluoroacetate] was run?
A: Its pKi is over 6.30.

Q: `C[C@H](NC(=O)[C@H]1C[C@@H](c2ccccc2)CCN1CCP(=O)(O)O)C(=O)NCc1ccc(C(=N)N)cc1` [Compound I-38, (2-((2R,4S)-2-(((S)-1-((4-Carbamimidoylbenzyl)Amino)-1-Oxopropan-2-Yl)Carbamoyl)-4-Phenylpiperidin-1-Yl)Ethyl)Phosphonic Acid Di-Trifluoroacetate] was tested. Which pKi did it give?
A: Its pKi is over 6.30.

Q: `C[C@H](NC(=O)[C@H]1C[C@H](Cc2cc(Cl)c(Cl)s2)CN1)C(=O)NCc1cnc2c(c1)c(Cl)cn2C` [Compound I-20, Trifluoroacetate] was tested. Which pKi did it give?
A: The pKi was over 6.30.

Q: With `C[C@H](NC(=O)[C@H]1C[C@@H](c2ccc(F)cc2)CCN1)C(=O)NCc1ccc(C(=N)N)cc1` [Compound I-67] as the compound, how does the pKi read?
A: The pKi was over 6.30.

Q: With `Cc1nc(N)ccc1CNC(=O)[C@@H]1CCN1C(=O)[C@H]1C[C@@H](c2cccc(-c3ccccc3)c2)CCN1` [Compound I-65, (S)-1-((2R,4S)-4-([1,1′-Biphenyl]-3-Yl)Piperidine-2-Carbonyl)-N-((6-Amino-2-Methylpyridin-3-Yl)Methyl)Azetidine-2-Carboxamide Di-Trifluoroacetate] as the compound, how does the pKi read?
A: The pKi was over 6.30.

Q: How did the pKi turn out when `C[C@H](NC(=O)[C@H]1C[C@H](Cc2ccccc2)CN1)C(=O)NCc1ccc2c(c1)CNC2` [Compound I-9, (2R,4S)-4-Benzyl-N—((S)-1-((Isoindolin-5-Ylmethyl)Amino)-1-Oxopropan-2-Yl)Pyrrolidine-2-Carboxamide Di-Trifluoroacetate] was run?
A: Its pKi is over 6.30.

Q: With `Cc1nc(N)ccc1CNC(=O)[C@H](CO)NC(=O)[C@H]1C[C@H](Cc2ccccc2)CN1` [Compound I-57, (2R,4S)—N—((S)-1-(((6-Amino-2-Methylpyridin-3-Yl)Methyl)Amino)-3-Hydroxy-1-Oxopropan-2-Yl)-4-Benzylpyrrolidine-2-Carboxamide Dihydrochloride] as the compound, how does the pKi read?
A: The pKi was over 6.30.

Q: `C[C@H](NC(=O)[C@H]1C[C@H](Cc2cc(Cl)c(Cl)s2)CN1)C(=O)NCc1cc2cnccc2[nH]1` [Compound I-22, (2R,4R)—N—((S)-1-(((1H-Pyrrolo[3,2-C]Pyridin-2-Yl)Methyl)Amino)-1-Oxopropan-2-Yl)-4-((4,5-Dichlorothiophen-2-Yl)Methyl)Pyrrolidine-2-Carboxamide Di-Trifluoroacetate] was tested. Which pKi did it give?
A: The pKi was over 6.30.

Q: `C[C@H](NC(=O)[C@H]1C[C@H](Cc2ccc(Cl)s2)CN1)C(=O)NCc1cnc2c(c1)c(Cl)cn2C` [Compound I-84, (2R,4R)—N—((S)-1-(((3-Chloro-1-Methyl-1H-Pyrrolo[2,3-B]Pyridin-5-Yl)Methyl)Amino)-1-Oxopropan-2-Yl)-4-((5-Chlorothiophen-2-Yl)Methyl)Pyrrolidine-2-Carboxamide Dihydrochloride] was tested. Which pKi did it give?
A: The pKi was over 6.30.

Q: With `C[C@H](NC(=O)[C@H]1C[C@H](Cc2ccccc2)CN1)C(=O)NCc1cc2c(s1)CNC2` [Compound I-99, (2R,4S)-4-Benzyl-N—((S)-1-(((5,6-Dihydro-4H-Thieno[2,3-C]Pyrrol-2-Yl)Methyl)Amino)-1-Oxopropan-2-Yl)Pyrrolidine-2-Carboxamide Di-Trifluoroacetate Salt] as the compound, how does the pKi read?
A: The pKi was over 6.30.

Q: With `C[C@H](NC(=O)[C@H]1C[C@H](c2ccccc2)CN1)C(=O)NCc1ccc(C(=N)N)cc1Cl` [Compound I-24, (2R,4R)—N—((S)-1-((4-Carbamimidoyl-2-Chlorobenzyl)Amino)-1-Oxopropan-2-Yl)-4-Phenylpyrrolidine-2-Carboxamide Di-Trifluoroacetate] as the compound, how does the pKi read?
A: Its pKi is over 6.30.

Q: `C[C@H](NC(=O)[C@H]1C[C@H](Cc2cc(Br)c(Cl)s2)CN1)C(=O)NCc1cc2cnccc2[nH]1` [Compound I-21, (2R,4R)—N—((S)-1-(((1H-Pyrrolo[3,2-C]Pyridin-2-Yl)Methyl)Amino)-1-Oxopropan-2-Yl)-4-((4-Bromo-5-Chlorothiophen-2-Yl)Methyl)Pyrrolidine-2-Carboxamide Di-Trifluoroacetate] was tested. Which pKi did it give?
A: The pKi was over 6.30.

Q: `C[C@H](NC(=O)[C@H]1C[C@H](Cc2ccccc2)CN1)C(=O)NCc1cnc2scc(Cl)c2c1` [Compound I-11, (2R,4S)-4-Benzyl-N—((S)-1-(((3-Chlorothieno[2,3-B]Pyridin-5-Yl)Methyl)Amino)-1-Oxopropan-2-Yl)Pyrrolidine-2-Carboxamide Trifluoroacetate] was tested. Which pKi did it give?
A: Its pKi is over 6.30.

Q: How did the pKi turn out when `C[C@H](NC(=O)[C@H]1C[C@H](Cc2cccc(Cl)c2)CN1)C(=O)NCc1cc2cnccc2[nH]1` [Compound I-5, (2R,4S)—N—((S)-1-(((1H-Pyrrolo[3,2-c]pyridin-2-yl)methyl)amino)-1-oxopropan-2-yl)-4-(3-chlorobenzyl)pyrrolidine-2-carboxamide di-trifluoroacetate] was run?
A: The pKi was over 6.30.

Q: With `C[C@H](NC(=O)[C@H]1C[C@H](Cc2ccnc(N)c2)CN1)C(=O)NCc1ccc(C(=N)N)cc1` [Compound I-56, (2R,4S)-4-((2-Aminopyridin-4-Yl)Methyl)-N—((S)-1-((4-Carbamimidoylbenzyl)Amino)-1-Oxopropan-2-Yl)Pyrrolidine-2-Carboxamide Di-Trifluoroacetate] as the compound, how does the pKi read?
A: Its pKi is over 6.30.

Q: How did the pKi turn out when `C[C@H](NC(=O)[C@H]1C[C@H](c2cccc(CO)c2)CN1)C(=O)NCc1ccc(C(=N)N)cc1` [Compound I-94, (2R,4R)—N—((S)-1-((4-Carbamimidoylbenzyl)Amino)-1-Oxopropan-2-Yl)-4-(3-(Hydroxymethyl)Phenyl)Pyrrolidine-2-Carboxamide Di-Trifluoroacetate] was run?
A: The pKi was over 6.30.
